Reference: ChEMBL document CHEMBL3217717, “Synthesis and antiproliferative activity of novel erythromycin derivatives” (Medchemcomm, 2010)
pIC50: −log10 of the molar value.

How the values were obtained:
[1] = Cell cycle arrest in human HT1080 cells assessed as accumulation at S phase at IC50 after 48 hrs by propidium iodide staining-based flow cytometric analysis (reference value: 15.11%); format: functional; conditions: HT-1080
[2] = Cell cycle arrest in human HT1080 cells assessed as accumulation at G2/M phase at 0.5 times IC50 after 48 hrs by propidium iodide staining-based flow cytometric analysis (reference value: 31.39%); format: functional; conditions: HT-1080
[3] = Cell cycle arrest in human HT1080 cells assessed as accumulation at subG1 phase at 2 times IC50 after 24 hrs by propidium iodide staining-based flow cytometric analysis (reference value: 0.82%); format: functional; conditions: HT-1080
[4] = Cell cycle arrest in human HT1080 cells assessed as accumulation at G2/M phase at 2 times IC50 after 48 hrs by propidium iodide staining-based flow cytometric analysis (reference value: 31.39%); format: functional; conditions: HT-1080
[5] = Cell cycle arrest in human HT1080 cells assessed as accumulation at G0/G1 phase at 0.5 times IC50 after 24 hrs by propidium iodide staining-based flow cytometric analysis (reference value: 49.18%); format: functional; conditions: HT-1080
[6] = Cell cycle arrest in human HT1080 cells assessed as accumulation at G0/G1 phase at 2 times IC50 after 24 hrs by propidium iodide staining-based flow cytometric analysis (reference value: 49.18%); format: functional; conditions: HT-1080
[7] = Cell cycle arrest in human HT1080 cells assessed as accumulation at subG1 phase at IC50 after 48 hrs by propidium iodide staining-based flow cytometric analysis (reference value: 1.86%); format: functional; conditions: HT-1080
[8] = Cell cycle arrest in human HT1080 cells assessed as accumulation at S phase at 2 times IC50 after 48 hrs by propidium iodide staining-based flow cytometric analysis (reference value: 15.11%); format: functional; conditions: HT-1080
[9] = Cytotoxicity against human HT1080 cells assessed as growth inhibition after 48 hrs by MTT assay; format: functional, cell-based; conditions: HT-1080, 48 h
[10] = Cell cycle arrest in human HT1080 cells assessed as accumulation at S phase at 0.5 times IC50 after 48 hrs by propidium iodide staining-based flow cytometric analysis (reference value: 15.11%); format: functional; conditions: HT-1080
[11] = Cell cycle arrest in human HT1080 cells assessed as accumulation at G2/M phase at IC50 after 24 hrs by propidium iodide staining-based flow cytometric analysis (reference value: 23.71%); format: functional; conditions: HT-1080
[12] = Cell cycle arrest in human HT1080 cells assessed as accumulation at subG1 phase at IC50 after 24 hrs by propidium iodide staining-based flow cytometric analysis (reference value: 0.82%); format: functional; conditions: HT-1080
[13] = Cell cycle arrest in human HT1080 cells assessed as accumulation at subG1 phase at 0.5 times IC50 after 24 hrs by propidium iodide staining-based flow cytometric analysis (reference value: 0.82%); format: functional; conditions: HT-1080
KB = assay: Cytotoxicity against human KB cells assessed as growth inhibition after 48 hrs by MTT assay; format: functional, cell-based
[14] = Cell cycle arrest in human HT1080 cells assessed as accumulation at G2/M phase at 2 times IC50 after 24 hrs by propidium iodide staining-based flow cytometric analysis (reference value: 23.71%); format: functional; conditions: HT-1080
[15] = Cell cycle arrest in human HT1080 cells assessed as accumulation at S phase at IC50 after 24 hrs by propidium iodide staining-based flow cytometric analysis (reference value: 21.01%); format: functional; conditions: HT-1080
[16] = Cell cycle arrest in human HT1080 cells assessed as accumulation at G0/G1 phase after 24 hrs by propidium iodide staining-based flow cytometric analysis; format: functional; conditions: HT-1080
[17] = Cell cycle arrest in human HT1080 cells assessed as accumulation at S phase at 2 times IC50 after 24 hrs by propidium iodide staining-based flow cytometric analysis (reference value: 21.01%); format: functional; conditions: HT-1080
[18] = Cell cycle arrest in human HT1080 cells assessed as accumulation at G2/M phase at IC50 after 48 hrs by propidium iodide staining-based flow cytometric analysis (reference value: 31.39%); format: functional; conditions: HT-1080
[19] = Cell cycle arrest in human HT1080 cells assessed as accumulation at G0/G1 phase at 0.5 times IC50 after 48 hrs by propidium iodide staining-based flow cytometric analysis (reference value: 41.60%); format: functional; conditions: HT-1080
[20] = Cell cycle arrest in human HT1080 cells assessed as accumulation at G0/G1 phase at 2 times IC50 after 48 hrs by propidium iodide staining-based flow cytometric analysis (reference value: 41.60%); format: functional; conditions: HT-1080
[21] = Cell cycle arrest in human HT1080 cells assessed as accumulation at G0/G1 phase at IC50 after 48 hrs by propidium iodide staining-based flow cytometric analysis (reference value: 41.60%); format: functional; conditions: HT-1080
[22] = Cell cycle arrest in human HT1080 cells assessed as accumulation at subG1 phase at 0.5 times IC50 after 48 hrs by propidium iodide staining-based flow cytometric analysis (reference value: 1.86%); format: functional; conditions: HT-1080
[23] = Cell cycle arrest in human HT1080 cells assessed as accumulation at G0/G1 phase at IC50 after 24 hrs by propidium iodide staining-based flow cytometric analysis (reference value: 49.18%); format: functional; conditions: HT-1080
[24] = Cytotoxicity against human SGC7901 cells assessed as growth inhibition after 48 hrs by MTT assay; format: functional, cell-based; conditions: SGC-7901, 48 h
[25] = Cell cycle arrest in human HT1080 cells assessed as accumulation at G2/M phase at 0.5 times IC50 after 24 hrs by propidium iodide staining-based flow cytometric analysis (reference value: 23.71%); format: functional; conditions: HT-1080
[26] = Cell cycle arrest in human HT1080 cells assessed as accumulation at subG1 phase at 2 times IC50 after 48 hrs by propidium iodide staining-based flow cytometric analysis (reference value: 1.86%); format: functional; conditions: HT-1080
[27] = Cell cycle arrest in human HT1080 cells assessed as accumulation at S phase at 0.5 times IC50 after 24 hrs by propidium iodide staining-based flow cytometric analysis (reference value: 21.01%); format: functional; conditions: HT-1080
[28] = Cell cycle arrest in human HT1080 cells assessed as accumulation at G0/G1 phase after 24 to 48 hrs by propidium iodide staining-based flow cytometric analysis; format: functional; conditions: HT-1080
[29] = Cell cycle arrest in human HT1080 cells assessed as accumulation at G0/G1 phase at 0.5 to 2 times IC50 by propidium iodide staining-based flow cytometric analysis; format: functional; conditions: HT-1080, TDE = time-dependent effect

Compound	Activity [1] [%]	Activity [2] [%]	Activity [3] [%]	Activity [4] [%]	Activity [5] [%]	Activity [6] [%]	Activity [7] [%]	Activity [8] [%]	pIC50 [9]	Activity [10] [%]	Activity [11] [%]	Activity [12] [%]	Activity [13] [%]	pIC50 (KB)	Activity [14] [%]	Activity [15] [%]	Activity [17] [%]	Activity [18] [%]	Activity [19] [%]	Activity [20] [%]	other results
CC[C@H]1OC(=O)[C@H](C)[C@@H](O[C@H]2C[C@@](C)(OC)[C@@H](O)[C@H](C)O2)[C@H](C)[C@@H](O[C@@H]2O[C@H](C)C[C@H](N(C)CCN(C)[C@H]3C[C@@H](C)O[C@@H](O[C@@H]4[C@@H](C)[C@H](O[C@H]5C[C@@](C)(OC)[C@@H](O)[C@H](C)O5)[C@@H](C)C(=O)O[C@H](CC)[C@@](C)(O)[C@H](O)[C@@H](C)/C(=N\O)[C@H](C)C[C@@]4(C)O)[C@@H]3O)[C@H]2O)[C@](C)(O)C[C@@H](C)/C(=N/O)[C@H](C)[C@@H](O)[C@]1(C)O	9.35	10.1	8.14	17.9	66	66.6	1.34	14.8	5.07	6.94	11.5	2.01	1.41	5.21	12.5	13.9	11.1	10.8	80	48.7	Activity [16]: Dose-dependent effect; Activity [21]: 77.3%; Activity [22]: 1.34%; Activity [23]: 71.2%; pIC50 [24]: 4.66; Activity [25]: 14.4%; Activity [26]: 15.7%; Activity [27]: 16.5%
CC[C@H]1OC(=O)[C@H](C)[C@@H](O[C@H]2C[C@@](C)(OC)[C@@H](O)[C@H](C)O2)[C@H](C)[C@@H](O[C@@H]2O[C@H](C)C[C@H](N(C)CCN(C)[C@H]3C[C@@H](C)O[C@@H](O[C@@H]4[C@@H](C)[C@H](O[C@H]5C[C@@](C)(OC)[C@@H](O)[C@H](C)O5)[C@@H](C)C(=O)O[C@H](CC)[C@@](C)(O)[C@H](O)[C@@H](C)/C(=N\O)[C@H](C)C[C@@]4(C)OC)[C@@H]3O)[C@H]2O)[C@](C)(OC)C[C@@H](C)/C(=N/O)[C@H](C)[C@@H](O)[C@]1(C)O	12.6	15.3	0.85	10.1	62	75.1	0.77	11.5	5.28	13.7	18.5	0.77	0.6	5.36	11.9	15.9	10.8	12.8	67.6	74.5	Activity [28]: Dose-dependent effect; Activity [29]: tde; Activity [21]: 71.9%; Activity [22]: 0.75%; Activity [23]: 62.7%; pIC50 [24]: 5.11; Activity [25]: 17.4%; Activity [26]: 2.47%; Activity [27]: 18.1%
